The results in this text go back to ChEMBL document CHEMBL3526141, “Characterization of human liver enzymes involved in the biotransformation of boceprevir, a hepatitis C virus protease inhibitor” (Drug Metab Dispos, 2011).

Data set [1] addresses T1, Cytochrome P450 3A5 (Homo sapiens, UniProt P20815). In words: Drug metabolism assessed as human CYP3A5-mediated compound formation from 20 uM [14C]boceprevir after 120 mins by LC-MS/FSA method relative to total [14C]boceprevir. In kind it is ADME. To be noted: recombinant enzyme, 2 h.
The nature of data set [2]: Retention time of the compound by LC-MS/MS method. In kind it is physicochemical.
Data set [3] deals with Liver cytosol. In words: Drug metabolism in human liver cytosol treated with 20 uM [14C]SCH 534128 assessed as 100 uM diazepam-mediated inhibition of metabolite formation LC-MS/MS/FSA method. In kind it is ADME, tissue-based. Also on record: interact cpd dose 100 uM.
The subject of data set [4] is Liver cytosol. The data set can be described thus: Drug metabolism in human liver cytosol treated with 20 uM [14C]boceprevir assessed as IC50 for AKR inhibitor diflunisal-mediated metabolite formation after 60 mins by LC-MS/MS/FSA method. To be noted: 1 h. In kind it is ADME, tissue-based.
Data set [5] concerns Liver cytosol. In words: Drug metabolism in human liver cytosol at 20 uM assessed as (1R,2S,5S)-N-((2S,3R)-4-amino-1-cyclobutyl-3-hydroxy-4-oxobutan-2-yl)-3-((S)-2-(3-tert-butylureido)-3,3-dimethylbutanoyl)-6,6-dimethyl-3-azabicyclo[3.1.0]hexane-2-carboxamide formation in presence of BNPP by LC-MS/MS/FSA method. Format: ADME.
The next data set addresses Cytochrome P450 3A4 (Homo sapiens, UniProt P08684). The data set can be described thus: Drug metabolism assessed as human CYP3A4-mediated compound formation from 5 uM [14C]boceprevir after 120 mins by LC-MS/FSA method relative to total [14C]boceprevir. In kind it is ADME. The conditions noted are these: recombinant enzyme, 2 h, BLD = below limit of detection.
The target in data set [6] is T1, Cytochrome P450 3A5. The data set can be described thus: Drug metabolism assessed as human CYP3A5-mediated compound formation from 5 uM [14C]boceprevir after 120 mins by LC-MS/FSA method relative to total [14C]boceprevir. Format: ADME. The conditions noted are these: recombinant enzyme, 2 h.
In data set [7] the test system is Liver cytosol. In words: Ratio of Vmax to Km for drug metabolism in human liver cytosol assessed as (1R,2S,5S)-N-((2R,3R)-4-amino-1-cyclobutyl-3-hydroxy-4-oxobutan-2-yl)-3-((S)-2-(3-tert-butylureido)-3,3-dimethylbutanoyl)-6,6-dimethyl-3-azabicyclo[3.1.0]hexane-2-carboxamide formation per mg protein after 60 mins by LC-MS/MS/FSA method. In kind it is ADME. The conditions noted are these: 1 h.

Data set [8] deals with Liver cytosol. The data set can be described thus: Drug metabolism in human liver cytosol at 20 uM assessed as (1R,2S,5S)-N-((2S,3R)-4-amino-1-cyclobutyl-3-hydroxy-4-oxobutan-2-yl)-3-((S)-2-(3-tert-butylureido)-3,3-dimethylbutanoyl)-6,6-dimethyl-3-azabicyclo[3.1.0]hexane-2-carboxamide formation at 20 uM after 60 mins in presence of pre-incubation with ritonavir by LC-MS/MS/FSA method. In kind it is ADME. To be noted: 1 h.

For data set [9], the system named is Liver cytosol. The data set can be described thus: Drug metabolism in human liver cytosol at 20 uM assessed as (1R,2S,5S)-N-((2S,3R)-4-amino-1-cyclobutyl-3-hydroxy-4-oxobutan-2-yl)-3-((S)-2-(3-tert-butylureido)-3,3-dimethylbutanoyl)-6,6-dimethyl-3-azabicyclo[3.1.0]hexane-2-carboxamide formation at 20 uM after 60 mins in presence of AKR inhibitor diazepam by LC-MS/MS/FSA method. In kind it is ADME. The conditions noted are these: 1 h.

The nature of data set [10]: Drug metabolism in human liver S9 fraction at 20 uM assessed as (1R,2S,5S)-N-((2S,3R)-4-amino-1-cyclobutyl-3-hydroxy-4-oxobutan-2-yl)-3-((S)-2-(3-tert-butylureido)-3,3-dimethylbutanoyl)-6,6-dimethyl-3-azabicyclo[3.1.0]hexane-2-carboxamide formation in presence of allopurinol by LC-MS/MS/FSA method. In kind it is ADME, subcellular. To be noted: s9, 20 µM.
The target of a further data set is T2, Cytochrome P450 2J2 (Homo sapiens, UniProt P51589).
T2 sequence (P51589 whole entry): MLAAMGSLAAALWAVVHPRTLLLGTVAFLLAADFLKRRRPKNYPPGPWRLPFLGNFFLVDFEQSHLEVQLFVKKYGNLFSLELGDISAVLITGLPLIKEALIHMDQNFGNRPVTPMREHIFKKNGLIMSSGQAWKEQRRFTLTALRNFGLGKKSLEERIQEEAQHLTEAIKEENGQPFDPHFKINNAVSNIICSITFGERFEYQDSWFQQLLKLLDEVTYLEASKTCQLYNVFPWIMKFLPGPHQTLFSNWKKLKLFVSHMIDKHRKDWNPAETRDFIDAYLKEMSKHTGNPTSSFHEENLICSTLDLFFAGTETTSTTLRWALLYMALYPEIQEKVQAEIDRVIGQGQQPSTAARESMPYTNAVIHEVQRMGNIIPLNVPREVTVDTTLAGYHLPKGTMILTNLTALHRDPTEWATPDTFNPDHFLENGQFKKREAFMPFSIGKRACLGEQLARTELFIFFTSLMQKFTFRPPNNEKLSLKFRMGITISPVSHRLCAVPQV
The data set can be described thus: Drug metabolism assessed as human CYP2J2-mediated compound formation from 5 to 20 uM [14C]boceprevir after 120 mins by LC-MS/FSA method relative to total [14C]boceprevir. Format: ADME. To be noted: recombinant enzyme, 2 h.

The subject of data set [11] is Liver cytosol. The data set can be described thus: Drug metabolism in human liver cytosol at 20 uM assessed as (1R,2S,5S)-N-((2S,3R)-4-amino-1-cyclobutyl-3-hydroxy-4-oxobutan-2-yl)-3-((S)-2-(3-tert-butylureido)-3,3-dimethylbutanoyl)-6,6-dimethyl-3-azabicyclo[3.1.0]hexane-2-carboxamide formation at 20 uM after 60 mins in presence of co-incubation with ritonavir by LC-MS/MS/FSA method. Format: ADME. To be noted: 1 h.

For data set [12], the system named is Liver cytosol. The data set can be described thus: Drug metabolism in human liver cytosol at 20 uM assessed as (1R,2S,5S)-N-((2S,3R)-4-amino-1-cyclobutyl-3-hydroxy-4-oxobutan-2-yl)-3-((S)-2-(3-tert-butylureido)-3,3-dimethylbutanoyl)-6,6-dimethyl-3-azabicyclo[3.1.0]hexane-2-carboxamide formation in presence of flufenamic acid by LC-MS/MS/FSA method. Format: ADME.

Data set [13] relates to Liver cytosol. The data set can be described thus: Drug metabolism in human liver cytosol at 20 uM assessed as (1R,2S,5S)-N-((2S,3R)-4-amino-1-cyclobutyl-3-hydroxy-4-oxobutan-2-yl)-3-((S)-2-(3-tert-butylureido)-3,3-dimethylbutanoyl)-6,6-dimethyl-3-azabicyclo[3.1.0]hexane-2-carboxamide formation in presence of mefenamic acid by LC-MS/MS/FSA method. In kind it is ADME.
The nature of data set [14]: Drug metabolism in human liver S9 fraction at 20 uM assessed as (1R,2S,5S)-N-((2S,3R)-4-amino-1-cyclobutyl-3-hydroxy-4-oxobutan-2-yl)-3-((S)-2-(3-tert-butylureido)-3,3-dimethylbutanoyl)-6,6-dimethyl-3-azabicyclo[3.1.0]hexane-2-carboxamide formation in presence of phenolphthalein by LC-MS/MS/FSA method. The conditions noted are these: s9, 20 µM. In kind it is ADME, subcellular.

Data set [15] is described as follows: Drug excretion in human feces assessed as carbonyl reduction pathway related metabolites level. Also on record: dosed compound name [14C]boceprevir. Format: ADME.

SMILES strings stand for the structures. pIC50: −log10 of the molar value.

T1 sequence (P20815 whole entry): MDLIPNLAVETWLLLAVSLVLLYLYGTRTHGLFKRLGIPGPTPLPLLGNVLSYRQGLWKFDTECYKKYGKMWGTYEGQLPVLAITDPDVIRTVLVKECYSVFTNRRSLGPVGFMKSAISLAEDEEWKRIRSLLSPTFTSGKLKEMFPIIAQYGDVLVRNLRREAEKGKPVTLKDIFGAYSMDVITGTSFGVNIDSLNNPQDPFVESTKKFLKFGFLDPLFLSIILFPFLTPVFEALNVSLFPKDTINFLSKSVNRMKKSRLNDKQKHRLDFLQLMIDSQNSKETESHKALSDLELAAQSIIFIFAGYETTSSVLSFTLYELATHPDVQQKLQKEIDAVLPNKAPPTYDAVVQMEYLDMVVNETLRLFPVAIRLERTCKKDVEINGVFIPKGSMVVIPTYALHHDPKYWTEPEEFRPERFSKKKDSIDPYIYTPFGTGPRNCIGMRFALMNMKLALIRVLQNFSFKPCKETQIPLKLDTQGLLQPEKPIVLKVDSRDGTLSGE
Cytochrome P450 3A4, sequence (P08684 whole entry): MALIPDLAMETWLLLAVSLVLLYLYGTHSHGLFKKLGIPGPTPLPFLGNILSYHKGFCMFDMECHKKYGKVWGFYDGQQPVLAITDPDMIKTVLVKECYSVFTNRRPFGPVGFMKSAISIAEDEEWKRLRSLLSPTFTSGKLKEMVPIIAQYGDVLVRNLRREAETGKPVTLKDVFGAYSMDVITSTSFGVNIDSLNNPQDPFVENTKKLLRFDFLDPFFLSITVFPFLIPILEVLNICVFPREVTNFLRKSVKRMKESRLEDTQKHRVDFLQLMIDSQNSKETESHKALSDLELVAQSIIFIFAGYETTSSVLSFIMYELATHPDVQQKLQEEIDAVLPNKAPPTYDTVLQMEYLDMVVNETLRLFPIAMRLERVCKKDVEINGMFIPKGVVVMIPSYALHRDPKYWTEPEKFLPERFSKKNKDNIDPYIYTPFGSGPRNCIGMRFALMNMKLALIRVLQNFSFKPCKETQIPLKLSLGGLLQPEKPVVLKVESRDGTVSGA

Turning to `CC(C)(C)NC(=O)N[C@H](C(=O)N1C[C@H]2[C@@H]([C@H]1C(=O)N[C@@H](CC1CCC1)[C@@H](O)C(N)=O)C2(C)C)C(C)(C)C`, at Cytochrome P450 3A5 [1] (BLD = below limit of detection), the Compound recovery entry is “BLD”. In data set [2], the Retention_time was 40.1 min. For the same molecule, the “inhibition (INH)” value in the data set with Liver cytosol [3] came out at 72.9%. For the same molecule, the pIC50 in the data set with Liver cytosol [4] was 5.34.
With `CC(C)(C)NC(=O)N[C@H](C(=O)N1C[C@H]2[C@@H]([C@H]1C(=O)N[C@H](CC1CCC1)C(=O)C(N)=O)C2(C)C)C(C)(C)C`, the Compound recovery result in the data set with Liver cytosol [5] is given as “metabolite_not_detected”; on Cytochrome P450 3A4, “BLD”; at Cytochrome P450 3A5 [1], 19.67%; on Cytochrome P450 3A5 [6] it was 2.19%. The Vmax/Km with Liver cytosol [7] was determined as 30.9 µL/min. In data set [2], the Retention_time came out at 44.6 min.
As to `CC(C)(C)NC(=O)N[C@H](C(=O)N1C[C@H]2[C@@H]([C@H]1C(=O)NC(CC1CCC1)C(=O)C(N)=O)C2(C)C)C(C)(C)C` (stereo partly specified) [BOCEPREVIR], the Compound recovery result in the data set on Liver cytosol [8] is recorded as “metabolite_detected”; in the data set on Liver cytosol [5] it was “metabolite_not_detected”; with Liver cytosol [9], “metabolite_not_detected”; in [10], “metabolite_detected”; at Cytochrome P450 2J2, “metabolite_not_detected”; in the data set with Liver cytosol [11], “metabolite_detected”. In addition, the Compound recovery entry (in the data set with Liver cytosol [12]; with Liver cytosol [13]; in data set [14]) was “metabolite_not_detected” throughout. Besides, in the data set on Liver cytosol [4], the pIC50 was 5.34. The Radiolabel recovery in data set [15] worked out at 22%.

The pIC50 is the negative decadic logarithm of the IC50, by convention in mol/L.
